Experimental findings from patent US20240092757A1, “HETEROARYL DIAMIDE IRE1/XBP1s ACTIVATORS” (Protego Biopharma, Inc., priority 2021, published 2024) are described below.

Counter-ions that a name gives are not always drawn.

The experiment relates to IRE1-XBP1s. Put plainly: IRE1-XBP1s activation Assay (XBP1-RLuc splicing reporter, HEK293 T-REx cells). The format is cell-based. Particulars: compound 10 μM, 18 h, HEK293 T-REx cells stably expressing XBP1-RLuc splicing reporter, relative to thapsigargin (Tg) 500 nM, read-out: Activity (IRE1-XBP1s Activation; luminescence as percentage signal relative to thapsigargin). As to the method:
IRE1-XBP1s activation Assay: HEK293 T-REx cells stably expressing the XBP1-RLuc splicing reporter were treated with an IRE1—XBP1s activator provided herein (10 μM) in the presence or absence of the IRE1 active site inhibitor 4 μ8C (32 μM) for 18 h. Luminescence was shown as the percentage signal relative to thapsigargin (Tg) (500 nM, 18 h).
Turning to `Cc1ccc(OCCN(C)C(=O)Cn2cc(NC(=O)COc3ccccc3)cn2)cc1` [Compound 44], the activation at 10 µM lay in the range of 30 to 50%. The same measure for `CN(CCCc1ccc(C(F)(F)F)cc1)C(=O)Cn1cc(NC(=O)CCOc2ccccc2)cn1` [Compound 31]: under 30%. As for `Cc1ccc(OCCN(C)C(=O)Cn2cc(NC(=O)CCOc3ccc(N)cc3)cn2)cc1` [Compound 37], the activation at 10 µM was at least 50%. For `Cc1ccc(OCCN(C)C(=O)Cn2cnc(NC(=O)CCOc3ccc(F)cc3)c2)cc1` [Compound 16], the activation at 10 µM was at least 50%. As for `CN(CCOc1ccccn1)C(=O)Cn1cc(NC(=O)CCOc2ccccc2)cn1` [Compound 38], the activation at 10 µM was under 30%. Then `Cc1ccc(OCCN(C)C(=O)Cn2cc(NC(=O)CCc3ccccc3)cn2)cc1` [Compound 25, N-(1-(2-(Methyl(2-(p-tolyloxy)ethyl)amino)-2-oxoethyl)-1H -pyrazol-4-yl)-3-phenylpropanamide hydrochloride], with 30 to 50%; and `CN(CCOc1ccc(C2(C(F)(F)F)N=N2)cc1)C(=O)Cn1cc(NC(=O)CCOc2ccccc2)cn1` [Compound 40], with under 30%; and `COc1ccc(OCCNC(=O)Cn2cc(NC(=O)CCOc3ccccc3)cn2)cc1` [Compound 42], with under 30%. Then `Cc1ccc(CN(C)C(=O)Cn2cc(NC(=O)CCOc3ccccc3)cn2)cc1` [Compound 43], with under 30%; and `Cc1ccc(OCCN(C)C(=O)Cn2ccc(NC(=O)CCOc3ccccc3)n2)cc1` [Compound 50, N-(1-(2-(methyl(2-(p-tolyloxy)ethyl)amino)-2-oxoethyl)-1H -pyrazol-3-yl)-3-phenoxypropanamide], with under 30%. Take `COc1ccc(OCCC(=O)Nc2cnn(CC(=O)N(C)CCOc3ccc(C)cc3)c2)cc1` [Compound 10]: the activation at 10 µM is at least 50%.

Turning to `CN(CCOc1ccccc1)C(=O)Cn1cc(NC(=O)CCOc2ccccc2)cn1` [Compound 29, N-(1-(2-(Methyl(2-phenoxyethyl)amino)-2-oxoethyl)-1H-pyrazol-4-yl)-3-phenoxypropanamide hydrochloride], the activation at 10 µM is under 30%. The same measure for `Cc1ccc(OCCN(C)C(=O)Cn2cc(NC(=O)CCCc3ccccc3)cn2)cc1` [Compound 53]: 30 to 50%; for `Cc1ccc(OCCN(C)C(=O)Cn2cc(NC(=O)CCOc3ccc(CO)cc3)cn2)cc1` [Compound 35]: at least 50%; for `CN(C(=O)Cn1cc(NC(=O)CCOc2ccccc2)cn1)c1ccccc1` [Compound 28, N-(1-(2-(Methyl(phenyl)amino)-2-oxoethyl)-1H-pyrazol-4-yl)-3-phenoxypropanamide hydrochloride]: under 30%.

Turning to `Cc1ccc(OCCN(C)C(=O)Cn2cc(NC(=O)CCOc3ccccc3F)cn2)cc1` [Compound 34], the activation at 10 µM was at least 50%. Consider `Cc1ccc(OCCNC(=O)Cn2cc(NC(=O)CCOc3ccccc3)cn2)cc1` [Compound 41], for which the activation at 10 µM was under 30%.

With `Cc1ccc(OCCN(C)C(=O)C(C)n2cc(NC(=O)CCOc3ccccc3)cn2)cc1` (centres unmarked) [Compound 46], the activation at 10 µM was in the range of 30 to 50%. On to `CN(CCOc1ccc(C(F)(F)F)cc1)C(=O)Cn1cc(NC(=O)CCOc2ccccc2)cn1` [Compound 30, N-(1-(2-(Methyl(2-(4-(trifluoromethyl)phenoxy)ethyl)amino)-2-oxoethyl)-1H-pyrazol-4-yl)-3-phenoxypropanamide hydrochloride], for which the activation at 10 µM was at least 50%.

As for `Cc1ccc(OCCN(C)C(=O)Cn2cc(NC(=O)Cc3ccccc3)cn2)cc1` [Compound 26, N-Methyl-2-(4-(2-phenylacetamido)-1H-pyrazol-1-yl)-N-(2-(p-tolyloxy)ethypacetamide hydrochloride], the activation at 10 µM is under 30%.

As to `Cc1ccc(OCCN(C)C(=O)Cn2cc(NC(=O)CCOc3ccc(Cl)cc3)cn2)cc1` [Compound 45], the activation at 10 µM was 30 to 50%. `Cc1ccc(OCCN(C)C(=O)Cn2cc(NC(=O)CCOc3cccc(F)c3)cn2)cc1` [Compound 36]: the activation at 10 µM was at least 50%. On to `Cc1ccc(OCCN(C)C(=O)Cn2nc(C)c(NC(=O)CCOc3ccccc3)c2C)cc1` [Compound 47], for which the activation at 10 µM is under 30%. On to `COc1ccc(OCCC(=O)Nc2ccn(CC(=O)N(C)CCOc3ccc(C)cc3)n2)cc1` [Compound 51], for which the activation at 10 µM is under 30%.

As for `CN(CCc1ccccc1)C(=O)Cn1cc(NC(=O)CCOc2ccccc2)cn1` [Compound 27, N-(1-(2-(methyl(phenethyl)amino)-2-oxoethyl)-1H-pyrazol-4-yl) -3-phenoxypropanamide hydrochloride], the activation at 10 µM is under 30%. With `CN(CCOc1ccc(C(F)(F)F)cn1)C(=O)Cn1cc(NC(=O)CCOc2ccccc2)cn1` [Compound 39], the activation at 10 µM lay in the range of 30 to 50%.
